Columns and labels:
[1] = system: TGBC1TKB (Biliary Tract Carcinoma); experiment: combination Emax (second highest fraction inhibited in the dose matrix, 72 h); higher = more inhibition; extreme values may be limits of the assay
How it was run: (§1)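 Cell lines in DMEM/F12 or RPMI with 10% FBS were plated in 1536-well plates, held 24 hours at 37°C, 5% CO2, then given two-drug dose matrices for 72 hours (DMSO typically 0.2%). Viability was read by CellTiter-Glo 2.0 luminescence and scaled as inhibition from 0 (vehicle wells) to 1 (blank wells). Combination Emax is the second-highest inhibition in the matrix; Bliss excess is observed combination effect minus expected EA + EB − EA·EB, EA and EB being single-agent effects.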

[2] = system: BE-13 (T-Lymphoblastic Leukemia); experiment: Bliss excess, mean over the matrix (fraction); higher = more synergy
How it was run: as §1

[3] = system: WSU-NHL (B-Cell Non-Hodgkin's Lymphoma); experiment: as above
How it was run: as §1

[4] = system: TGBC1TKB (Biliary Tract Carcinoma); experiment: as above
How it was run: as §1

[5] = system: OVCAR-5 (Ovarian Carcinoma); experiment: as above
How it was run: as §1

[6] = system: LNZTA3WT4 (Low Grade Glioma); experiment: as above
How it was run: as §1

KS-1 (Glioblastoma) = experiment: as above
How it was run: as §1

GAMG (Glioblastoma) = experiment: as above
How it was run: as §1

[7] = system: HuCCT1 (Biliary Tract Carcinoma); experiment: as above
How it was run: as §1

[8] = system: FTC-133 (Thyroid Gland Carcinoma); experiment: combination Emax (second highest fraction inhibited in the dose matrix, 72 h); higher = more inhibition; extreme values may be limits of the assay
How it was run: as §1

[9] = system: Detroit562 (Head and Neck Carcinoma); experiment: as above
How it was run: as §1

NCI-H2722 (Mesothelioma) = experiment: as above
How it was run: as §1

NCI-H2052 (Mesothelioma) = experiment: Bliss excess, mean over the matrix (fraction); higher = more synergy
How it was run: as §1

[10] = system: FTC-133 (Thyroid Gland Carcinoma); experiment: as above
How it was run: as §1

[11] = system: BFTC-909 (Kidney Carcinoma); experiment: as above
How it was run: as §1

BPH-1 (Non-Cancerous) = experiment: as above
How it was run: as §1

[12] = system: SW1573 (Lung Adenocarcinoma); experiment: as above
How it was run: as §1

[13] = system: NCI-H209 (Small Cell Lung Carcinoma); experiment: as above
How it was run: as §1

[14] = system: OE21 (Esophageal Squamous Cell Carcinoma); experiment: as above
How it was run: as §1

[15] = system: L-428 (Hodgkin's Lymphoma); experiment: as above
How it was run: as §1
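Throughout, for Bliss excess, mean over the matrix: after 72 h of two-drug dosing.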

CN(CCO)CC[C@H](CSc1ccccc1)Nc1ccc(S(=O)(=O)NC(=O)c2ccc(N3CCC([C@@H](O)c4ccccc4-c4ccc(Cl)cc4)CC3)cc2)cc1S(=O)(=O)C(F)(F)F [AZD4320] + CC(=O)O[C@H]1C(=O)[C@@]2(C)[C@H]([C@H](OC(=O)c3ccccc3)[C@]3(O)C[C@H](OC(=O)[C@H](O)[C@@H](NC(=O)c4ccccc4)c4ccccc4)C(C)=C1C3(C)C)[C@]1(OC(C)=O)CO[C@@H]1C[C@@H]2O [Paclitaxel] (first compound max 1 µM, 7x7, partner max 3 µM) was tested, and the “combination Emax” value [1] was 0.894, the Bliss excess [2] was 0.0037 and the Bliss excess [3] was 0.0294. For the same compound, the Bliss excess [4] was 0.118, the Bliss excess [5] was 0.0576 and the Bliss excess [6] was 0.0016. It also gave a Bliss excess (KS-1 (Glioblastoma)) of 0.217, a Bliss excess (GAMG (Glioblastoma)) of 0.095 and a Bliss excess [7] of 0.0276.

In the case of CN(CCO)CC[C@H](CSc1ccccc1)Nc1ccc(S(=O)(=O)NC(=O)c2ccc(N3CCC([C@@H](O)c4ccccc4-c4ccc(Cl)cc4)CC3)cc2)cc1S(=O)(=O)C(F)(F)F [AZD4320] + CCN(CCO)CCCOc1ccc2c(Nc3cc(CC(=O)Nc4cccc(F)c4)[nH]n3)ncnc2c1 [AZD2811] (first compound max 1 µM, 7x7, partner max 1 µM), the “combination Emax” value [8] was 0.681, the “combination Emax” value [1] was 0.424 and the “combination Emax” value [9] was 0.825. The “combination Emax” value (NCI-H2722 (Mesothelioma)) was 0.401, the Bliss excess [2] was 0.0663 and the Bliss excess (NCI-H2052 (Mesothelioma)) was -0.0462. For the same compound, the Bliss excess [3] was -0.0295, the Bliss excess [10] was 0.0384 and the Bliss excess [4] was -0.0478. The Bliss excess [5] was -0.0458, the Bliss excess [6] was -0.0224 and the Bliss excess [11] was 0.0605. The Bliss excess (BPH-1 (Non-Cancerous)) was -0.0079, the Bliss excess (KS-1 (Glioblastoma)) was 0.0261 and the Bliss excess (GAMG (Glioblastoma)) was 0.119. It also gave a Bliss excess [7] of -0.0283, a Bliss excess [12] of 0.004 and a Bliss excess [13] of 0.184. For the same compound, the Bliss excess [14] was -0.0212 and the Bliss excess [15] was 0.0083.

For CN(CCO)CC[C@H](CSc1ccccc1)Nc1ccc(S(=O)(=O)NC(=O)c2ccc(N3CCC([C@@H](O)c4ccccc4-c4ccc(Cl)cc4)CC3)cc2)cc1S(=O)(=O)C(F)(F)F [AZD4320] + C[C@@H]1COCCN1C2=NC(=NC(=C2)C3(CC3)[S@](=N)(=O)C)C4=C5C=CNC5=NC=C4 [AZD6738] (first compound max 1 µM, 7x7, partner max 10 µM), the “combination Emax” value [8] was 0.947, the “combination Emax” value [1] was 0.666 and the “combination Emax” value [9] was 0.905. The “combination Emax” value (NCI-H2722 (Mesothelioma)) was 0.503, the Bliss excess [2] was -0.0251 and the Bliss excess (NCI-H2052 (Mesothelioma)) was -0.0021. The Bliss excess [3] was -0.104, the Bliss excess [10] was 0.0324 and the Bliss excess [4] was -0.0093. The Bliss excess [5] was -0.0282, the Bliss excess [6] was -0.0029 and the Bliss excess [11] was 0.042. The Bliss excess (BPH-1 (Non-Cancerous)) was -0.0979, the Bliss excess (KS-1 (Glioblastoma)) was 0.0082 and the Bliss excess (GAMG (Glioblastoma)) was -0.0756. The Bliss excess [7] was -0.0681, the Bliss excess [12] was -0.0216 and the Bliss excess [13] was 0.0545. The Bliss excess [14] was 0.0053 and the Bliss excess [15] was -0.0103.

For CN(CCO)CC[C@H](CSc1ccccc1)Nc1ccc(S(=O)(=O)NC(=O)c2ccc(N3CCC([C@@H](O)c4ccccc4-c4ccc(Cl)cc4)CC3)cc2)cc1S(=O)(=O)C(F)(F)F [AZD4320] + C[C@@H](Nc1cc(F)cc(F)c1)c1cc(C(=O)N(C)C)cc2c(=O)cc(N3CCOCC3)oc12 [AZD8186] (first compound max 1 µM, 7x7, partner max 3 µM), the “combination Emax” value [8] was 0.803, the “combination Emax” value [1] was 0.802 and the “combination Emax” value [9] was 0.666. For the same compound, the “combination Emax” value (NCI-H2722 (Mesothelioma)) was 0.555, the Bliss excess [2] was -0.0065 and the Bliss excess (NCI-H2052 (Mesothelioma)) was -0.0278. The Bliss excess [3] was -0.037, the Bliss excess [10] was 0.0718 and the Bliss excess [4] was 0.0019. It also gave a Bliss excess [5] of -0.0133, a Bliss excess [6] of -0.0197 and a Bliss excess [11] of -0.0011. It also gave a Bliss excess (BPH-1 (Non-Cancerous)) of -0.0541, a Bliss excess (KS-1 (Glioblastoma)) of -0.0166 and a Bliss excess (GAMG (Glioblastoma)) of 0.0337. For the same compound, the Bliss excess [7] was 0.0583, the Bliss excess [12] was -0.0169 and the Bliss excess [13] was 0.0529. It also gave a Bliss excess [14] of 0.0243 and a Bliss excess [15] of 0.0393.

In the case of CN(CCO)CC[C@H](CSc1ccccc1)Nc1ccc(S(=O)(=O)NC(=O)c2ccc(N3CCC([C@@H](O)c4ccccc4-c4ccc(Cl)cc4)CC3)cc2)cc1S(=O)(=O)C(F)(F)F [AZD4320] + Cc1cc2ncnn2cc1Nc1ncc2c(n1)n(C1CCOCC1)c(=O)n2C [AZD7648] (first compound max 1 µM, 7x7, partner max 10 µM), the “combination Emax” value [8] was 0.491, the “combination Emax” value [1] was 0.577 and the “combination Emax” value [9] was 0.22. The “combination Emax” value (NCI-H2722 (Mesothelioma)) was 0.159, the Bliss excess [2] was 0.0028 and the Bliss excess (NCI-H2052 (Mesothelioma)) was -0.0451. The Bliss excess [3] was -0.0087, the Bliss excess [10] was -0.0097 and the Bliss excess [4] was -0.0343. The Bliss excess [5] was -0.0452, the Bliss excess [6] was -0.0358 and the Bliss excess [11] was -0.0094. The Bliss excess (BPH-1 (Non-Cancerous)) was -0.0325, the Bliss excess (KS-1 (Glioblastoma)) was 0.0033 and the Bliss excess (GAMG (Glioblastoma)) was -0.0633. The Bliss excess [7] was -0.0407, the Bliss excess [12] was -0.0592 and the Bliss excess [13] was 0.0477. For the same compound, the Bliss excess [14] was -0.0187 and the Bliss excess [15] was -0.0021.

For COc1nnc2ccc(N3CCC(c4ccc(OCCN5CCN(C)C(=O)[C@H]5C)cc4)CC3)nn12 [AZD5153] + CN(CC[C@H](CSC1=CC=CC=C1)NC2=C(C=C(C=C2)S(=O)(=O)NC(=O)C3=CC=C(C=C3)N4CCC(CC4)[C@H](C5=CC=CC=C5C6=CC=C(C=C6)Cl)O)S(=O)(=O)C(F)(F)F)CCO [AZD4320] (first compound max 1 µM, 7x7, partner max 1 µM), the “combination Emax” value [8] was 0.909, the “combination Emax” value [9] was 0.942 and the “combination Emax” value (NCI-H2722 (Mesothelioma)) was 0.774. It also gave a Bliss excess (NCI-H2052 (Mesothelioma)) of -0.0348, a Bliss excess [10] of 0.112 and a Bliss excess [11] of 0.0663. For the same compound, the Bliss excess (BPH-1 (Non-Cancerous)) was 0.0728, the Bliss excess [12] was 0.089 and the Bliss excess [13] was 0.01. The Bliss excess [14] was 0.0129 and the Bliss excess [15] was -0.0432.
